Consider eight compounds from paper PMC4106024 (Cancer biology & therapy, 2008).

As a reminder, the Ki is a dissociation constant, usually derived from enzyme kinetics or from competition with a known ligand. In general, MTD refers to the largest dose that counted as tolerated. Low readings indicate a narrow tolerated range, high ones a wide tolerated range. What is called IC50 is the concentration that gives 50% inhibition.

Entries after “also recorded” stand apart in the source; their conditions may differ. Where two headings read alike, the source gives them in different places. *: point of attachment. Cbz = O=C(OCc1ccccc1)*; CH2F = FC*

For one data set, the system named is DLCL2 cells. The experiment in a line: Growth inhibition of DLCL2 cells with caspase inhibitors and/or ApoG2. In kind it is cell-based, human.
Another data set has as its system PANC-1 cells. The experiment in a line: Cell growth inhibition, MTT assay. The following applies: PANC-1, very low level of Bcl-2. It counts as cell-based, human.
Data set [1] is described as follows: Serum concentration in mice. The following applies: iv 80 mg/kg per day for five days. In kind it is in vivo.
In data set [2] the test system is cleavage of caspase-3, caspase-9 and PARP. In words: Western blot of apoptosis markers in WSU-DLCL2 cells. The following applies: WSU-DLCL2 whole cell lysate. In kind it is cell-based, human. On the technique in general: Immunoblotting shows a protein as a band on a membrane.
Data set [3] deals with WSU-DLCL2 cells. The experiment in a line: Cell growth inhibition by Trypan Blue cell counting and MTT assay. In kind it is cell-based, human. The settings on record: WSU-DLCL2, 350 nM, Trypan Blue cell counting.
For another data set, the target named is recombinant human Mcl-1 (Homo sapiens, UniProt Q07820). In words: Fluorescence polarization-based competitive binding assay.
Another data set concerns WM cells. The experiment in a line: Cell growth inhibition, Trypan blue cell counting. The following applies: very low level of Bcl-2. It counts as cell-based, human.
Data set [4] deals with primary cells of chronic lymphocytic leukemia. The experiment in a line: Cytotoxic effect on patient-derived primary cells, Trypan Blue cell counting. The following applies: 350 nM or higher, 72 h.
The nature of data set [5]: Stability under stressed conditions, spectral purity by HPLC-UV. In kind it is physicochemical. The settings on record: n = 2.
Data set [6] relates to protein levels of Bcl-XL or Bim. The experiment in a line: Western blot of whole cell lysate for Bcl-XL and Bim. It counts as cell-based, human. The settings on record: concentrations up to 5 μM.
For the next data set, the system named is FSCCL cells. The experiment in a line: Cell growth inhibition, Trypan blue cell counting. In kind it is cell-based, human. The following applies: high level of Bcl-2.
Data set [7] can be described thus: Stability test in solid state, spectral purity by HPLC-UV. It counts as physicochemical. The settings on record: amber glass container, room temperature, n = 2.
Data set [8] has as its system WSU-DLCL2 cells. The experiment in a line: Acridine orange/ethidium bromide. In kind it is cell-based, human. The settings on record: 4.0 μm.
The next data set concerns WSU-DLCL2 xenografts. The experiment in a line: In vivo efficacy test in WSU-DLCL2 SCID mouse xenografts. Set-up: species or system ICR-SCID mice. The following applies: 600 mg/kg (120 mg/kg daily for 5 days), iv or po.
In data set [9] the test system is non-tumor-bearing SCID mice. The settings on record: in vivo.
In data set [10] the test system is primary cells of mantle cell lymphoma. The experiment in a line: Cytotoxic effect on patient-derived primary cells, Trypan Blue cell counting. The following applies: 350 nM or higher, 72 h.
Data set [11] deals with normal peripheral blood lymphocytes. In words: Cytotoxic effect on normal lymphocytes, Trypan Blue cell counting. The following applies: as high as 8 μM, 72 h.
Data set [12] deals with non-tumor-bearing SCID mice. The experiment in a line: Maximal tolerated dose.
The next data set can be described thus: Maximal tolerated dose. The settings on record: SCID, mouse, in vivo, iv, 40 mg/kg.
For data set [13] the following is noted: in vivo, cited from earlier work.
The next data set relates to Bcl-2 expressing B-cells. The following applies: in vitro; cited from earlier work.
Data set [14] concerns normal female Balb/c mice. The settings on record: 120 μM/kg (approximately 62 mg/kg), five days daily po × 3 weeks; versus vehicle control or Apogossypol; cited from earlier work.
For data set [15], the system named is WSU-DLCL2 cells. The settings on record: read-out: Estimated IC50; cited from earlier work.

Sequence of recombinant human Mcl-1 (Q07820 whole entry): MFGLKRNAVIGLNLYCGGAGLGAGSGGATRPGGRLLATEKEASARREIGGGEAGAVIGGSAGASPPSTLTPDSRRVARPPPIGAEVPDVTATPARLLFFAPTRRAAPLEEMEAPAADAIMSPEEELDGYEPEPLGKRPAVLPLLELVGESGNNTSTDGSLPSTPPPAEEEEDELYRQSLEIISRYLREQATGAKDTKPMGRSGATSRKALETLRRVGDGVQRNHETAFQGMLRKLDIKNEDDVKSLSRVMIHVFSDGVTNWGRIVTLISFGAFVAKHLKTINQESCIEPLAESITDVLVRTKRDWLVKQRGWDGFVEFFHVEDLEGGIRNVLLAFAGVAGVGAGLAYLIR

With Cbz-LEHD-CH2F, the “Growth inhibition, caspase inhibitor alone” value with DLCL2 cells was “no effects of growth inhibition”.

On to Apogossypolone [ApoG2], for which the Growth inhibition result is “induces growth inhibition” in the data set with PANC-1 cells, “approximately 50%” with WSU-DLCL2 cells [3], “induces growth inhibition” in the data set with WM cells and “induces growth inhibition” in the data set on FSCCL cells. The “Serum concentration (unbound)” value in [1] was 5.0 µM. In addition, the “Cleavage of caspase-3, caspase-9 and PARP” value in data set [2] is “resulted in the activation of cleavages of caspase-3, caspase-9 and PARP”. Besides, the Ki at recombinant human Mcl-1 (recombinant Mcl-1, n = 3) came to 0.025 ± 0.01 µM. Also, the Cytotoxic effect entry in data set [4] and in data set [10] was “significant cytotoxic effect” throughout. The “Spectral purity under stressed conditions” value in data set [5] (0.1 N HCI, 5 mm) turned out to be 96.5 ± 0.4%; in data set [5] (0.1 N NaOH, 5 mm), 96.3 ± 0.4%; in data set [5] (30% H2O2, 5 mm), 97.3 ± 0.2%; in data set [5] (Normal light, 2 h), 95.2 ± 0.2%; in [5] (Reference) it was 98.0 ± 0.4%. Besides, the “Protein levels of Bcl-XL or Bim” value in [6] is recorded as “did not affect significantly”. Also, the “Spectral purity in solid state” value is given as 100.0 ± 0% in data set [7] (0 h); 100.0 ± 0.1% in data set [7] (2 weeks); 100.0 ± 0.1% in data set [7] (3 weeks); 99.7 ± 0.5% in data set [7] (4 days); 99.9 ± 0.2% in data set [7] (7 days). Besides, the “Apoptotic cells (AO/EtBr)” value was determined as 10% in the data set with WSU-DLCL2 cells [8] (24 h, control approximately 3%); 17% in the data set with WSU-DLCL2 cells [8] (48 h, control approximately 4%); 32% with WSU-DLCL2 cells [8] (72 h, control approximately 7%). Also, the “Growth inhibition of mouse xenografts, single agent” value in the data set with WSU-DLCL2 xenografts is “comparable with that resulted from treatment with CHOP; also recorded: significant growth inhibition”. The “H & E staining of sections of mouse liver, small and large intestines” value in data set [9] was “no abnormality”. The “Cytotoxicity on normal cells” value in [11] is recorded as “no major cytotoxicity; also recorded: no toxicity”.

Turning to `Cc1cc2c(C(C)C)c(O)c(O)c(C=O)c2c(O)c1-c1c(C)cc2c(C(C)C)c(O)c(O)c(C=O)c2c1O` [gossypol], the “Signs of toxicity at MTD” value in data set [12] (120 mg/kg (3 x 40 mg/kg iv)) was “scruffy and rough hair as well as lethargic behavior”. In addition, in [12] (120 mg/kg (3 x 40 mg/kg iv), data not shown), the “Weight loss at MTD” value is under 5%. Moreover, the Lethality entry in [12] (daily iv injection of 40 mg/kg for 4 days or 60 mg/kg for three days) is “lethal”. Also, the “H & E staining of sections of mouse liver, small and large intestines” value in data set [12] (versus vehicle control, data not shown) is recorded as “no abnormality”. Moreover, in “Maximal tolerated dose”, the MTD at 3 days amounted to 120 mg/kg. Also, the “Bioavailability when given orally” value in data set [13] (po) is listed as 12.2–17.6%. In addition, the “medial lethal dose (LD50)” value in the data set on Bcl-2 expressing B-cells is 7.5 to 10 µM. Besides, the “Hepatotoxicity and gastrointestinal toxicity” value in data set [14] is “a great deal of hepatotoxicity and gastrointestinal toxicity”.

As to Cbz-Val-Ala-Asp-CH2F, the “Growth inhibition, caspase inhibitor alone” value in the data set on DLCL2 cells is “no effects of growth inhibition”.

Consider `Cc1cc2c(C(C)C)c(O)c(O)c(C=O)c2c(O)c1-c1c(C)cc2c(C(C)C)c(O)c(O)c(C=O)c2c1O` [(-)-gossypol, reference compound], for which the inhibition constant Ki at recombinant human Mcl-1 stood at 0.17 ± 0.01 µM. The IC50 in the data set with WSU-DLCL2 cells [15] was over 1 µM.

Consider `Cc1cc2c(C(C)C)c(O)c(O)cc2c(O)c1-c1c(C)cc2c(C(C)C)c(O)c(O)cc2c1O` [Apogossypol], for which the “Blood concentrations over time” value in [13] is “superior blood concentrations over time compared to gossypol”. Further, in the data set on Bcl-2 expressing B-cells, the “medial lethal dose (LD50)” value was 3 to 5 µM.

On to Z-DEVD-FMK, for which, in the data set on DLCL2 cells, the “Growth inhibition, caspase inhibitor alone” value was “no effects of growth inhibition”.

Consider `Cc1cc2c(C(C)C)c(O)c(O)c(C=O)c2c(O)c1-c1c(C)cc2c(C(C)C)c(O)c(O)c(C=O)c2c1O` (racemic) [Racemic gossypol, gossypol, reference compound], for which the “Spectral purity under stressed conditions” value in data set [5] (0.1 N HCI, 5 mm) worked out at 15.8 ± 0.4%; in data set [5] (0.1 N NaOH, 5 mm), 10.4 ± 0.2%; in data set [5] (30% H2O2, 5 mm), 14.5 ± 0.4%; in data set [5] (Normal light, 2 h), 92.3 ± 0.2%; in data set [5] (Reference), 92.6 ± 0.6%. The “Spectral purity in solid state” value is reported as 100.0 ± 0% in data set [7] (0 h); 99.9 ± 0.1% in data set [7] (2 weeks); 99.8 ± 0.2% in [7] (3 weeks); 99.4 ± 0.1% in data set [7] (4 days); 99.8 ± 0.1% in data set [7] (7 days).
